Data taken from patent publication US20090105149A1, “Compounds comprising lpa” (ENKAM PHARMACEUTICALS A/S, priority 2003, published 2009).

Tests used:
[1] = tested on: organotypic hippocampal neuronal slice cultures (OHSC); experiment: OGD, propidium iodide staining of OHSC; assay type: cell-based, rat
Description: In the present study it was investigated the effect of the FGL peptide on synaptic plasticity, neuronal function and vulnerability following oxygen and glucose deprivation (OGD) in organotypic hippocampal neuronal slice cultures (OHSC) from 7-day-old Wistar rats according to method of Stoppini et al. (1991) Neurosci Methods. 37:173-82 and primary cultures of dissociated hippocampal neurons from 1-day-old rats according to method of Maar et al. (1997) J Neurosci Res. 47:163-72. Primary cell cultures were maintained for 11-12 days and OHSC for 12-14 days prior to adding FGLd.
The primary cell cultures and OHSC were exposed to OGD for 10 and 20 minutes. Following OGD, the cultures were again supplied with oxygen and glucose and analysed at 1, 4 or 24 hour time point after introduction of OGD exposure. FGLd (or the control peptide FGLc) was added 24 hr before, immediately, or 1 hr or 24 hr after OGD. When administered prior to OGD, FGLd was removed from the medium when introducing OGD. In some cases, the slice cultures were treated with FGLd only at 4 hr after OGD. In addition, the FGFR inhibitor, SU5402 (25 μM), was added together with FGLd in some of the set-ups.
In hippocampal neuronal cultures, FM 1-43 staining was used to evaluate pre-synaptic function (described above). Cell viability in both primary cell cultures and OHSC was measured using the […] [3-(4,5-dimethylthiazol-2-yl)-2,5-diphenyltetrazolium bromide] assay according to Malich et al, (1997) Toxicology. 124:179-92. In, addition, cell viability in OHSC was measured using propidium iodide (PI) staining according to Laake et al. (1999) Brain Res Brain Res Protoc. 4:173-84.

[2] = tested on: rats treated with (25-35) β-amyloid fragment; experiment: Social Recognition test, (25-35) β-amyloid fragment rat model; assay type: in vivo; settings: days 7, 10, 13
Experimental: The results are from the experiment in which the suboccipital administration of 5.0 μg FGL per administration per rat was done at days 7, 10, and 13 after A-β-induced neurotoxicity. […] The number of animals in the groups varied from 4 to 22. The results were analysed using one-way ANOVA (F(2,27)=15.4, P<0.0001) and significance of results was contingent on achieving a p-value of less than 0.05 (**p<0.01), when compared to the A-β/V group (Newman-Keuls post-test). […] FGLcontrol as above.
[…] The number of animals per group varied from 4 to 5. The results were analysed using unpaired t-test and significance of results was contingent on achieving a p-value of less than 0.05 (*p<0.05), when compared to the A-β/N group. […]
The present study employed a rat model, in which neurotoxicity and cognitive impairment were induced by the (25-35) β-amyloid peptide fragment (see Maurice T., et al. (1996) (Brain Res. 706:181-93) and Delobette S., et al. (1997) Eur J Pharmacol. 319:1-4). […] Short-term memory deficit in rats was evaluated using three different behavioural tests: the Social Recognition (Kogan et al, (2000) Hippocampus 10:47-56), Open Field (Cerbone and Sadile, (1994) Neurosci Biobehav Rev. 18:497-518; Vianna et al, (2000) Learn Mem. 7:333-40) and Y-maze (Clayton & Williams, (2000) Neurobiol Learn Mem. 74:135-45) tests. […]

[3] = tested on: rats treated with (25-35) β-amyloid fragment; experiment: Open Field test, (25-35) β-amyloid fragment rat model; assay type: in vivo; settings: day 14; for time spent exploring holes / time spent rearing: sub-occipital, days 7, 10, 13
Experimental: The peptide was applied sub-occipitally at days 7, 10, and 13 after the (25-35) β-amyloid fragment induced neurotoxicity. […] The number of animals per group varied from 9 to 11. ‘A-β’ and ‘V’ are the abbreviations of the (25-35) β-amyloid fragment and vehicle, respectively. The results were analysed using unpaired t-test and significance of results was contingent on achieving a p-value of less than 0.05 (*p<0.05, **p<0.01), when compared with the first measurement period (1-3 min.).
The present study employed a rat model, in which neurotoxicity and cognitive impairment were induced by the (25-35) β-amyloid peptide fragment (see Maurice T., et al. (1996) (Brain Res. 706:181-93) and Delobette S., et al. (1997) Eur J Pharmacol. 319:1-4). Short-term memory deficit induced by the (25-35) β-amyloid peptide fragment in rat is of special importance to study, as it resembles one of the clinical manifestations of Alzheimer's disease. Short-term memory deficit in rats was evaluated using three different behavioural tests: the Social Recognition (Kogan et al, (2000) Hippocampus 10:47-56), Open Field (Cerbone and Sadile, (1994) Neurosci Biobehav Rev. 18:497-518; Vianna et al, (2000) Learn Mem. 7:333-40) and Y-maze (Clayton & Williams, (2000) Neurobiol Learn Mem. 74:135-45) tests. In addition, neuropathological investigations were performed on brain tissue collected at the time of sacrifice. The FGL peptide was administered either sub-occipitally or intranasally.
Behaviour of animals was evaluated using the Social Recognition test, the Open Field test or the Light-dark Discriminating γ-maze. On day 28-30 or day 51 after i.c.v. administration of the (25-35) β-amyloid fragment, the animals were sacrificed, and in selected studies, the brain tissue was collected, histological sections were immunostained with A-β specific antibodies and the amyloid-burden was calculated as a percentage of the A-βpositive area. In addition, the number of neurons in selected areas of brain-sections was calculated using a stereological approach.

rats = experiment: Morris Water Maze test; assay type: in vivo, rat
Experimental: In the Morris Water Maze test, rats are evaluated in the spatial training task to find a hidden platform in order to escape swimming in the water.
In the Morris Water Maze study, rats were pre-trained to locate a hidden platform by daily training for 120 seconds for five days (days−4 to 0) before the experiment. On days 1 and 2, rats were given 3 consecutive trials in which the platform location remained constant. The time during which the rats were able to locate the platform was recorded within a maximum test-period of 120 seconds. The rats received a 5 μl injection of the FGLd peptide (5 μg), the control peptide (5 μg), or the vehicle solution immediately after each training trial on days 1 and 2.
The animals were tested 24 hours (day 3) and 7 days (day 10) after training. Fourteen days after training (day 17), the location of the platform was changed. Rats were trained to find a new location of the platform in three consecutive trials (“reversal learning”). In total, 48 animals were evaluated. Animals were divided into three groups consisting of 12-18 rats per treatment group.

FGLd: MAP-type dendrimer of FGL; dendrimeric tetramer of the FGL peptide (EVYVVAENQQGKSKA)
PI staining (cell damage) after 10 minutes of OGD ([1]; slices pre-treated for 24 hours): almost completely abolished | PI staining (cell damage) after 10 minutes of OGD ([1]; treated immediately after OGD): Cell damage was also avoided | PI staining (cell damage) after 10 minutes of OGD ([1]; treatment delayed until 4 hours after OGD): not if FGLd treatment was delayed until 4 hours after OGD | Social Recognition test ([2]; Study 1, sub-occipital, tested at day 14): No effect | Social Recognition test, time exploring a juvenile rat during the second trial ([2]; Study 2, sub-occipital 5 μg, vs β-amyloid fragment only): significantly reduced the increased time spent | locomotion activity [3]: unaffected | time spent exploring holes ([3]; first measurement period): 3.3 s | time spent rearing ([3]; first measurement period): 7.0 s | time spent exploring holes ([3]; last measurement period): 0.1 s | time spent rearing ([3]; last measurement period): 0.7 s | time to locate the platform (rats; day 2, 5 μg after training, untreated rats 93.0 s): 65.8 s | time to locate the platform (reversal learning) (rats; day 17): statistically significant
